Source: patent US20240293339A1, “COMPOUNDS, COMPOSITIONS AND METHODS FOR THE PREVENTION AND/OR TREATMENT OF VARIOUS MITOCHONDRIAL DISEASES OR DISORDERS, INCLUDING FRIEDREICH'S ATAXIA” (Stealth Bio Therapeutics Inc., priority 2021, published 2024)
Entries after “also recorded” stand apart in the source; their conditions may differ.

How the values were obtained:
[1] = system: frataxin deficient fibroblasts (Friedreich's ataxia patient fibroblast cell line GM03665); assay: Frataxin deficient fibroblast viability assay (the BSO Assay); type: cell-based, human; details: for EC50: Homo sapiens, Fibroblast, FA patient fibroblasts pretreated with drug 250 nM down to 6.125 nM the day before BSO 10 mM, MTT 48 hrs later; for BSO assay activity compared with vatiquinone (in words) / protection against ferroptosis (in words): summary of Table 1 BSO assay data
Method: Example 6: Frataxin Deficient Fibroblast Viability Assay (the “BSO Assay”)
This Example was used to evaluate the various new compositions for their potential efficacy in the treatment of Friedreich's Ataxia (FA or FRDA) based on their potential to inhibit ferroptosis based on this BSO assay—performed substantially as described in the above cited Reference (Matthias et al.).
The stock solutions of the test articles (and control compounds) were prepared in dimethyl sulfoxide (DMSO at 10 mM). Working stock solutions (2 times concentrated) were prepared on the day of the experiment in respective cell culture medium to be used for assay (detailed medium description below). A listing of compounds used as test articles in this Example 12 are found in Table 1, below.
A patient derived frataxin deficient fibroblast cell line was obtained from Coriell Institute. More specifically, the following cell lines/DNA samples were obtained from the NIGMS Human Genetic Cell Repository at the Coriell Institute for Medical Research: GM03665. To evaluate importance of various growth conditions on cell susceptibility to BSO toxicity cells were grown on:
MEM (Sigma-Aldrich) 15% Fetal Bovine Serum (FBS) without growth factors;
MEM (Sigma-Aldrich) 15% FBS with growth factors (Catalogue number 100-18B, Recombinant Human FGF-basic (154 a.a.) and catalogue number AF-100-15, Animal-Free Recombinant Human EGF from Peprotech);
MEM199/MEM EBS (Bioconcept Ltd.) 10% FBS, insulin 10 μg/ml, L-glutamine 2 mM with growth factors (Catalogue number 100-18B, Recombinant Human FGF-basic (154 a.a.) and catalogue number AF-100-15, Animal-Free Recombinant Human EGF from Peprotech).
To conduct an experiment, fibroblast cells (from all growth conditions) were seeded (100 μL (cells 3×10∧3/well) on 96-well plates in MEM199/MEM EBS medium 10% FBS, insulin 10 μg/mL, L-glutamine 2 mM with growth factors and allowed to grow on plate for 24 hrs. After 24 hrs., media was removed and then test compounds of interest were added (100 μL, 2 times concentrated stock) to 96-well plates (end DMSO concentration not exceeding 0.5%) and incubated for 24 hours. Then L-buthionine-sulfoximine (BSO, from Acros Organics, Cat. No. 235520010) was added (100 μL, 2 times concentrated stock) at end concentrations ranging from 1 to 10 mM. Both test compounds and BSO were dissolved in MEM199/MEM EBS medium 10% FBS, insulin 10 μg/mL, L-glutamine 2 mM with growth factors. Cell viability was monitored and either after 24- or 48-hours cell viability was assayed by MTT (Thiazolyl blue tetrazolium bromide) assay. For the MTT assay, media was removed and 100 μL of MTT 1 mg/mL was added, incubated for 2 hours at +37° C., then medium was removed and 100 μL of isopropanol added to dissolve sediment. Absorption was measured at 570 (OD570) and 650 (OD650) nm wavelengths. Control cells (vehicle instead of BSO and compound) and vehicle control (with BSO, but vehicle instead of test compound) were treated in the same manner as cells with BSO and compound. All cell media contained penicillin and streptomycin 100 U/mL each.
Absorption readouts were processed as follows: ValueΔ=ValueOD570-ValueOD650 and the obtained values were used to calculate cell viability as % of control cell (i.e., no BSO, no compound, just vehicle) viability.
Except as otherwise indicated in Table 1, all samples were run in at least 3 replicates for test compounds and at least 8 replicates for controls (i.e., both control (no BSO, no compound) and vehicle control (i.e., with BSO, no compound). Exact N per data points are indicated in the figures/table legends. Results for the compounds (test articles and controls) tested are listed in Table 1, below.
This is a cell-based assay measuring cytotoxicity which results from oxidative stress subsequent to depletion of endogenous glutathione defense mechanisms. […]

[2] = Concentration of therapeutic agents in blood and brain tissue in rat following oral administration; type: in vivo; details: male SD rats; for Brain level: perfused brain homogenate; for Cmax: male, Sprague-Dawley, rat, plasma, po, 10 mg/kg; for drop in plasma concentration relative to the next larger compound pair: 2-1/3-1 vs vatiquinone/1-1, 4-1/5-1 vs 2-1/3-1; for brain level (in words): summary of Table 1 brain concentration data
Method: Example 7: Study of Concentration of Therapeutic Agents in Blood and Brain Tissue in Rat Following Oral Administration
This study was intended to examine and compare the concentration of the various therapeutic agents tested in blood and brain tissue shortly after oral administration to rats.
The experimental procedures were carried out in accordance with the guidelines of the European Community and local laws and policies and were approved by the Latvian Animal Protection Ethical Committee, Food and Veterinary Service, Riga, Latvia. Animals were housed in the animal facilities at the Latvian Institute of Organic Synthesis (LIOS) under standard conditions (21-23° C., 12 h light-dark cycle) with unlimited access to food (R70 diet, Lantmännen Lantbruk, Sweden) and water. Male Sprague Dawley (SD) rats (8 weeks old at the time of purchase, from Envigo) were used for the study and were allowed an acclimatization period of at least 1 week prior to treatment. No drugs or vaccines were administered before the start of the study. Only healthy animals were included in the study. Animals were weighed on the day of treatment (before treatment) to calculate the required volume of working solution of compound (i.e. therapeutic agent) administered. No drugs except the therapeutic agent to be tested were administered during the study. Rats were dosed orally with compound (1 times weight μL, solution 10 mg/mL, dissolved in sesame oil).
Animals were anaesthetized using 5% isoflurane inhalation at selected time points after administration of test compounds. Then chest was opened and blood drawn from the heart and collected in EDTA coated microtubes (Sarstedt). Transcardial perfusion was performed afterwards by perfusing ice-cold PBS solution for 4 minutes, ˜55 mL total perfusion volume. Afterwards brain tissues were collected in microtubes and frozen in liquid nitrogen. Blood was centrifuged for 3 min at 10000 g within 15 minutes of collection. Plasma was collected in low-binding microtubes (Nerbe plus) by adding 95 μL of plasma to 5 μL of 2% HCOOH to obtain 100 μL of plasma solution with HCOOH end concentration 0.1%. Plasma was frozen in liquid nitrogen and stored at −80° C.
Tissue samples were weighed in 2 mL micro centrifuge tubes. Microtubes were kept on ice throughout the procedure. Tissue homogenates were prepared using acidified (0.1% HCOOH) water by adding 4 times volume to weighed samples. Two metal beads were placed in each micro centrifuge tube and brain tissues homogenized using Bead Ruptor (Omni International, USA) for 60 s using speed 4 ms per cycle. Homogenates (96 uL) were transferred to 1.5 mL low binding micro centrifuge tubes. Homogenates were frozen and kept at −80° C. until sample extraction for LC/MS/MS analysis.
Extraction of spiked SD Rat EDTA plasma or brain homogenate standards was performed by adding to 100 μL of spiked rat plasma or brain homogenate standard sample of 400 μL of deproteinization solution, 1% formic acid in MeOH with IS (reserpine 15 ng/mL). Samples were vortex mixed for 10 sec at 2800 rpm and incubated on orbital shaker for 10 min at 200 rpm. Then vortex mixed for 10 sec at 2800 rpm and centrifugated at 12000 rpm for 30 min in 5° C. Supernatants were transferred to LC vials and used for analysis. Extraction of rat EDTA plasma or brain homogenate analytical samples was performed by adding to 96 μL of rat plasma or brain homogenate analytical sample of 4 μL of DMSO, vortex mix the samples. Then 400 μL of deproteinization solution, 1% formic acid in MeOH with IS (reserpine 15 ng/mL) were added. Samples were vortex mixed for 10 sec at 2800 rpm and incubated on orbital shaker for 10 min at 200 rpm. Then vortex mixed for 10 sec at 2800 rpm and centrifugated at 12000 rpm for 30 min in 5° C. Supernatants were transferred to LC vials and used for analysis.
Data collected for each of the various therapeutic agents tested (i.e. vatiquinone and Compounds 1-1, 2-1, 3-1, 4-1 and 5-1 are summarized in Table 1, below.

[3] = 10 mg/mL solution in sesame oil, LC/MS/MS
[4] = 10 mg/mL solution in sesame oil, EDTA plasma, LC/MS/MS

| Brain level [2, 3] [ng/g] | Cmax [2, 4] [ng/mL] | drop in plasma concentration relative to the next larger compound pair [2] [fold] | Plasma Cmax [2, 4] [ng/mL] | SMILES | EC50 [1] [nM] | BSO assay activity compared with vatiquinone (in words) [1] | protection against ferroptosis (in words) [1] | brain level (in words) [2] |
| --- | --- | --- | --- | --- | --- | --- | --- | --- |
| 8.3 | ~500 |  |  | CC(C)=CCC/C(C)=C/CC/C(C)=C/CC[C@](C)(O)CCC1=C(C)C(=O)C(C)=C(C)C1=O [Compound 1-1, 2-[(3S,6E,10E)-3-hydroxy-3,7,11,15-tetramethyl-6,10,14-hexadecatrien-1-yl]-3,5,6-trimethyl-2,5-cyclohexadiene-1,4-dione] | 16.6 | at least equivalent to that of vatiquinone; also recorded: as good as vatiquinone | protective against ferroptosis |  |
| 24.5 | ~100 | ~5 |  | CC(C)=CCC/C(C)=C/CC[C@@](C)(O)CCC1=C(C)C(=O)C(C)=C(C)C1=O [Compound 2-1, (R,E)-2-(3-hydroxy-3,7,11-trimethyldodeca-6,10-dien-1-yl)-3,5,6-trimethylcyclohexa-2,5-diene-1,4-dione] | 141 | not quite as effective as vatiquinone | protective against ferroptosis | comparable to those observed with vatiquinone |
| 22.0 | ~100 | ~5 |  | CC(C)=CCC/C(C)=C/CC[C@](C)(O)CCC1=C(C)C(=O)C(C)=C(C)C1=O [Compound 3-1, (S,E)-2-(3-hydroxy-3,7,11-trimethyldodeca-6,10-dien-1-yl)-3,5,6-trimethylcyclohexa-2,5-diene-1,4-dione] | 41.2 | as good as vatiquinone | protective against ferroptosis | comparable to those observed with vatiquinone |
| 0 | 5.5 | ~20 |  | CC(C)=CCC[C@@](C)(O)CCC1=C(C)C(=O)C(C)=C(C)C1=O [Compound 4-1, (R)-2-(3-hydroxy-3,7-dimethyloct-6-en-1-yl)-3,5,6-trimethylcyclohexa-2,5-diene-1,4-dione] | 90.5 | not quite as effective as vatiquinone | protective against ferroptosis | no concentration of these compounds detected |
| 0 | 3.2 | ~20 |  | CC(C)=CCC[C@](C)(O)CCC1=C(C)C(=O)C(C)=C(C)C1=O [Compound 5-1, (S)-2-(3-hydroxy-3,7-dimethyloct-6-en-1-yl)-3,5,6-trimethylcyclohexa-2,5-diene-1,4-dione] | 39 | as good as vatiquinone | protective against ferroptosis | no concentration of these compounds detected |
| 20.8 | ~500 |  | 457 | CC(C)=CCC/C(C)=C/CC/C(C)=C/CC[C@@](C)(O)CCC1=C(C)C(=O)C(C)=C(C)C1=O [vatiquinone, 2-[(3R,6E, 10E)-3-Hydroxy-3,7,11,15-tetramethyl-6,10,14-hexadecatrien-1-yl]-3,5,6-trimethyl-2,5-cyclohexadiene-1,4-dione, reference compound] | 40.7 |  | protective against ferroptosis |  |
